The record followed here is ChEMBL document CHEMBL5212743, “Selectivity Literature for EUbOPEN Chemogenomics Library wave 3” (2023).

The target in assay [1] is eIF-2-alpha kinase GCN2 (Homo sapiens) (UniProt Q9P2K8). Nature of the assay: Selectivity interaction (KinomeScan (DiscoverX)) EUB0000702a EIF2AK4. The following applies: at 1 µM.
In assay [2] the target is Casein kinase II subunit alpha' (Homo sapiens) (UniProt P19784). Nature of the assay: Selectivity interaction (KinomeScan (DiscoverX)) EUB0000702a CSNK2A2. The following applies: at 1 µM.
Assay [3] deals with T1, Receptor-interacting serine/threonine-protein kinase 4 (Homo sapiens) (UniProt P57078).
T1 sequence (whole entry): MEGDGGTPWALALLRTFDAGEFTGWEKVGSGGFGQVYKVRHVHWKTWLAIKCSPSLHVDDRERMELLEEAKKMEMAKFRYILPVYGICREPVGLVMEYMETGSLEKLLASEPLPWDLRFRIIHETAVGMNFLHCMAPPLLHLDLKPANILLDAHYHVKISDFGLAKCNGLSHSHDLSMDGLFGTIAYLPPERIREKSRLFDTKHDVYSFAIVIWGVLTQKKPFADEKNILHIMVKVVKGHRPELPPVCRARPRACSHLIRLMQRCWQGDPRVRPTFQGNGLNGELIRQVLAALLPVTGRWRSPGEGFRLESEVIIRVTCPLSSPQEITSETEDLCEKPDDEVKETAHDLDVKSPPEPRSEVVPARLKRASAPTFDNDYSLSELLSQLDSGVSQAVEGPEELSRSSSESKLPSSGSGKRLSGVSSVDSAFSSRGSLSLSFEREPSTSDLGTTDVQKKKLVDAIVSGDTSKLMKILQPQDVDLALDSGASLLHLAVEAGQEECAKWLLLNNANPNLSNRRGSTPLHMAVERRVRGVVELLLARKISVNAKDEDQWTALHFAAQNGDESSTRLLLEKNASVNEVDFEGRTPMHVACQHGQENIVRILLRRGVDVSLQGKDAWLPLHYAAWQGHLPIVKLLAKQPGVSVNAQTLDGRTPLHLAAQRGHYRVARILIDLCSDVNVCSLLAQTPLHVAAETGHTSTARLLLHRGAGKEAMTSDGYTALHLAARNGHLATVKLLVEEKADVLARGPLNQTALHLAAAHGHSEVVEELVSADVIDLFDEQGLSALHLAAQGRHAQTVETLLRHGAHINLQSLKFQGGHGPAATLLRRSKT
Kind of assay: Selectivity interaction (KinomeScan (DiscoverX)) EUB0000702a RIPK4. The following applies: at 1 µM.

In assay [4] the target is T2, Gamma-aminobutyric acid receptor subunit alpha-1 (Homo sapiens, UniProt P14867).
T2 sequence (P14867 whole entry): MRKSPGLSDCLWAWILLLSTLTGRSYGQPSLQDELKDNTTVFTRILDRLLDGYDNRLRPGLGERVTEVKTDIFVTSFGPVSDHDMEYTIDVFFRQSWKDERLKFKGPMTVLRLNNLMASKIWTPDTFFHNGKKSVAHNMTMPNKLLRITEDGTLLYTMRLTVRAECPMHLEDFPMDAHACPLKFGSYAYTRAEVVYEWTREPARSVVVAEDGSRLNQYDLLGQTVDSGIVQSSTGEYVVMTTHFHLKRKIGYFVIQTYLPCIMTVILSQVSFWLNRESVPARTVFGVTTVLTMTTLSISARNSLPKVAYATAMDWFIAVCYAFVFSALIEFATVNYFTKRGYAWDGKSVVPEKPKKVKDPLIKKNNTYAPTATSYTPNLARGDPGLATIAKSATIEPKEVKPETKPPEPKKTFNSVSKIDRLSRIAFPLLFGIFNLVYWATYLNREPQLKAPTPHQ
Nature of the assay: Selectivity interaction (GPCR panel (PDSP screen)) EUB0000702a GABRA1.

Assay [5] addresses Muscle, skeletal receptor tyrosine-protein kinase (Homo sapiens) (UniProt O15146). Conditions: at 1 µM.
The target of assay [6] is Serine/threonine-protein kinase Chk2 (Homo sapiens, UniProt O96017). Conditions: at 1 µM.
Assay [7] has as its target Cyclin-dependent kinase 8 (Homo sapiens) (UniProt P49336). Conditions: at 1 µM.
The target of assay [8] is MAP kinase-activated protein kinase 2 (Homo sapiens, UniProt P49137). Nature of the assay: Selectivity interaction (Kinase panel (University of Dundee)) EUB0000169b MAPKAPK2. Conditions: at 10 µM.
For assay [9], the target named is Cyclin-dependent kinase 2 (Homo sapiens, UniProt P24941). Kind of assay: Selectivity interaction (Kinase panel (University of Dundee)) EUB0000169b CDK2. Conditions: at 10 µM.
Assay [10] addresses Calcium/calmodulin-dependent protein kinase kinase 2 (Homo sapiens) (UniProt Q96RR4). Kind of assay: Selectivity interaction (KinomeScan (DiscoverX)) EUB0000169b CAMKK2. Conditions: at 1 µM.
For assay [11], the system named is T3, Receptor-type tyrosine-protein kinase FLT3 (Homo sapiens), P36888 [D835V].
T3 sequence (whole entry): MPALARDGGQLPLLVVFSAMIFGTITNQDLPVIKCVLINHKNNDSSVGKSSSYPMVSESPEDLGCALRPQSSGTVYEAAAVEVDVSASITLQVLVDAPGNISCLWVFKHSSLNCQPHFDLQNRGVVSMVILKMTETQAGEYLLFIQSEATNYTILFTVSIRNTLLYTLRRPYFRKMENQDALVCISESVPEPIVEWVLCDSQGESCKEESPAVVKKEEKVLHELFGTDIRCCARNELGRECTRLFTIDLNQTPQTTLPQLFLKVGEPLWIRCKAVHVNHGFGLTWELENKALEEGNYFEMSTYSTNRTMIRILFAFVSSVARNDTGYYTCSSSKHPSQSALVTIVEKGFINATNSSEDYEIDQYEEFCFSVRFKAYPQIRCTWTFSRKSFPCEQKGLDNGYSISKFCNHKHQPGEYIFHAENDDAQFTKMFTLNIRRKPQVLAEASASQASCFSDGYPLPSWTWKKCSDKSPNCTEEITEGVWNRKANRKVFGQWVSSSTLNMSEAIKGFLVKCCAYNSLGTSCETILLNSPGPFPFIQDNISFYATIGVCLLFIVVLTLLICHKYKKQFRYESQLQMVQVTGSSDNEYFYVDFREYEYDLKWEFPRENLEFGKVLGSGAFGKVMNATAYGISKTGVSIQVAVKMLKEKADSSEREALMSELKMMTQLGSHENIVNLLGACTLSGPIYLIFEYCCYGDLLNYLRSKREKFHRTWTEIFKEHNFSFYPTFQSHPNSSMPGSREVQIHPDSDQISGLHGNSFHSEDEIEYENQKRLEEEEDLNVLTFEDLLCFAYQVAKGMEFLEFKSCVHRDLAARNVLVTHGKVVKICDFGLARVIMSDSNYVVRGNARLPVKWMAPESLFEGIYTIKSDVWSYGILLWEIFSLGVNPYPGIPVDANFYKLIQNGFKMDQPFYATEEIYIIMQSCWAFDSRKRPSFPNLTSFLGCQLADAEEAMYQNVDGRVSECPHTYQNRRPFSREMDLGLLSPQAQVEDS
Kind of assay: Selectivity interaction (KinomeScan (DiscoverX)) EUB0000305b FLT3. Conditions: at 100 nM.

Assay [12] concerns the target Mitogen-activated protein kinase kinase kinase 3 (Homo sapiens) (UniProt Q99759). Kind of assay: Selectivity interaction (KinomeScan (DiscoverX)) EUB0000178b MAP3K3. Conditions: at 1 µM.

pKi: −log10 of the molar value.

Sequence of Cyclin-dependent kinase 8 (Homo sapiens) (P49336 whole entry): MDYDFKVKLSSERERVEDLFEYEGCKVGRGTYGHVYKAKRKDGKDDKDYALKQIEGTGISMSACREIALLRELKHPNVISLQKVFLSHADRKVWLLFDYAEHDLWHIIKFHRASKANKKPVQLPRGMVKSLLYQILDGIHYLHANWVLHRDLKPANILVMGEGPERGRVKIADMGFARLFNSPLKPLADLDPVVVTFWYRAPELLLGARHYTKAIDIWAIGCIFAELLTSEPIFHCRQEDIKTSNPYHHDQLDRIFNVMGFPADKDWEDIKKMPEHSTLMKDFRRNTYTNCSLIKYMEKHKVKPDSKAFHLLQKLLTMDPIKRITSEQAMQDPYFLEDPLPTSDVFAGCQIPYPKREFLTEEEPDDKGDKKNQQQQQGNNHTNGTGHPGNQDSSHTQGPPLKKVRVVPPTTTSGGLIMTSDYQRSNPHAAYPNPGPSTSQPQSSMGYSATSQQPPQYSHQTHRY
Sequence of eIF-2-alpha kinase GCN2 (Homo sapiens) (Q9P2K8 whole entry): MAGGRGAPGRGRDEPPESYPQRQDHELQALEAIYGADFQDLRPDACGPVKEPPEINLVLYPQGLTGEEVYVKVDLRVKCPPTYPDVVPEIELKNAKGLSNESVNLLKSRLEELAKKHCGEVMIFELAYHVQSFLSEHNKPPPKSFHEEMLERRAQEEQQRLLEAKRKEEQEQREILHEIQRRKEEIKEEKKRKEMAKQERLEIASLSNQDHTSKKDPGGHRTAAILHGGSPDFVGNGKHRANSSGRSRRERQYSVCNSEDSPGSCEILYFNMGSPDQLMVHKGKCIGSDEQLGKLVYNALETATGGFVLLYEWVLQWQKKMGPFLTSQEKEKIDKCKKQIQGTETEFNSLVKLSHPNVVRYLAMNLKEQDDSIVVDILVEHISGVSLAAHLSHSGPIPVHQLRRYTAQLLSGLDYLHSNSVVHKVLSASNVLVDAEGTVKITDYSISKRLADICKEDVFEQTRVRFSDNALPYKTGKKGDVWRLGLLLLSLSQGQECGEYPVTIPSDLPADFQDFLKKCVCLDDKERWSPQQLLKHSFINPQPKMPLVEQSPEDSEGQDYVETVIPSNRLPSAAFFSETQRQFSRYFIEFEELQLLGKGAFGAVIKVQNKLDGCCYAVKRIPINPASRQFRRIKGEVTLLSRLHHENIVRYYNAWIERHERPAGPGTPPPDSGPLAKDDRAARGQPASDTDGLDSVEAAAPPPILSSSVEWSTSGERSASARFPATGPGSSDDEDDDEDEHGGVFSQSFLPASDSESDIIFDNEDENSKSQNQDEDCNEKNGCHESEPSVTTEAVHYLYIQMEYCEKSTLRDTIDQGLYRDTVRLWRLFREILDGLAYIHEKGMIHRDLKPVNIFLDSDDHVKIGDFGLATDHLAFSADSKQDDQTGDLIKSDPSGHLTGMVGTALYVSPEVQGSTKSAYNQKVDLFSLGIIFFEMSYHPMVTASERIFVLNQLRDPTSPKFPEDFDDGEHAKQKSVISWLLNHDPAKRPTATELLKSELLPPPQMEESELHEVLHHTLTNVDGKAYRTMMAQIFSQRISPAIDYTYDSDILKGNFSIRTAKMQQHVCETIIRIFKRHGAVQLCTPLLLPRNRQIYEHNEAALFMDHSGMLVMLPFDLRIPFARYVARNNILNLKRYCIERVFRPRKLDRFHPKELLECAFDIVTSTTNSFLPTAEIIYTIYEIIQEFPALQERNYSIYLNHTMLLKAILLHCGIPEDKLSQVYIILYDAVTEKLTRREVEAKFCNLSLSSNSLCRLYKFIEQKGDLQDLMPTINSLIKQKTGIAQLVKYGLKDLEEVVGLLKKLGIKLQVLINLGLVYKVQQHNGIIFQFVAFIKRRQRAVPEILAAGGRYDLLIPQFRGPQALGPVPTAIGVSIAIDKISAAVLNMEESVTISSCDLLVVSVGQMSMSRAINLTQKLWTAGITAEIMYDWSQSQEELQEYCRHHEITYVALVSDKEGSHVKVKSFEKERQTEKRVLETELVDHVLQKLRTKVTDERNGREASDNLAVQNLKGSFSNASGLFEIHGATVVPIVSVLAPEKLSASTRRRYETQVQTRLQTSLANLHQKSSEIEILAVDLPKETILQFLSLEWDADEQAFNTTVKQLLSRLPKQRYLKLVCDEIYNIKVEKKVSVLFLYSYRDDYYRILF
Sequence of Casein kinase II subunit alpha' (Homo sapiens) (P19784 whole entry, looked up): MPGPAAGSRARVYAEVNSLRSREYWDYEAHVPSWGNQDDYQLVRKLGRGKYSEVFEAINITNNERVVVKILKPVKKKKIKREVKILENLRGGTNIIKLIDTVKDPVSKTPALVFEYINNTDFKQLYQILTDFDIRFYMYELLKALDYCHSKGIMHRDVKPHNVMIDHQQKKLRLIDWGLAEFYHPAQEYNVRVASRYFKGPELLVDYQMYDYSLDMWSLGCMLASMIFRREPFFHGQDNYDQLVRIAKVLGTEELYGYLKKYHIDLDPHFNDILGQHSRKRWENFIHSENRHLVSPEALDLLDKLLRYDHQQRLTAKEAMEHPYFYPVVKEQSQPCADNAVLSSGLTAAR
Sequence of Serine/threonine-protein kinase Chk2 (O96017 whole entry): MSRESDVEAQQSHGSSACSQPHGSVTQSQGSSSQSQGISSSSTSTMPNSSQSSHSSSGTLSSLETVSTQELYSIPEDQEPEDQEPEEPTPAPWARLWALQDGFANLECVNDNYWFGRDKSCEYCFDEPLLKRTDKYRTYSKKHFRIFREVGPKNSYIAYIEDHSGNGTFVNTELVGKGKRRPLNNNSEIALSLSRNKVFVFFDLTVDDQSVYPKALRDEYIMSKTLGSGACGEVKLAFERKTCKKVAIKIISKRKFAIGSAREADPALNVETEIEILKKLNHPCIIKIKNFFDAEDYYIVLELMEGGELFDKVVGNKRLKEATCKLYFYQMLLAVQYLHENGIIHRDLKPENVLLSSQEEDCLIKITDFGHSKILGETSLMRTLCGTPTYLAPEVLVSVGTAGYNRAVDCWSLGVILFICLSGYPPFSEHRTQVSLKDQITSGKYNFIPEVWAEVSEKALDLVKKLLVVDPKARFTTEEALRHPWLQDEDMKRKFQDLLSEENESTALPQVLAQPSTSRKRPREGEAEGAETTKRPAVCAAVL
Sequence of Calcium/calmodulin-dependent protein kinase kinase 2 (Homo sapiens) (Q96RR4 2-588 limits assumed): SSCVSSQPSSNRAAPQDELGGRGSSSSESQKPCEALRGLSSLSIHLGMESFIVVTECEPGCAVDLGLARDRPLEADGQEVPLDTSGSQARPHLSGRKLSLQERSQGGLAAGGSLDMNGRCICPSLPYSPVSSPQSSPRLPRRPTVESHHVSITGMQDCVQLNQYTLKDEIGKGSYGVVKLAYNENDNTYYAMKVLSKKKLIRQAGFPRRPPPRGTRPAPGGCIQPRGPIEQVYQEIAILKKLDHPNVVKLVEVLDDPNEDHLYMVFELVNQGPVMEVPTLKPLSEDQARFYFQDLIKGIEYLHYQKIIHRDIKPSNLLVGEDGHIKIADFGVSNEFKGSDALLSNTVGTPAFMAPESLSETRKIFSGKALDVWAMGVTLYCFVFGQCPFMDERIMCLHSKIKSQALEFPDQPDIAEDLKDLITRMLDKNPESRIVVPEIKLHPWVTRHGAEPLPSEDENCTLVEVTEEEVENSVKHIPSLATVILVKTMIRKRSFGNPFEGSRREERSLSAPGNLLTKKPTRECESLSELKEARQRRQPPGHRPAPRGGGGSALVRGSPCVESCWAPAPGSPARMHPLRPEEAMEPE
Sequence of Mitogen-activated protein kinase kinase kinase 3 (Homo sapiens) (Q99759 whole entry): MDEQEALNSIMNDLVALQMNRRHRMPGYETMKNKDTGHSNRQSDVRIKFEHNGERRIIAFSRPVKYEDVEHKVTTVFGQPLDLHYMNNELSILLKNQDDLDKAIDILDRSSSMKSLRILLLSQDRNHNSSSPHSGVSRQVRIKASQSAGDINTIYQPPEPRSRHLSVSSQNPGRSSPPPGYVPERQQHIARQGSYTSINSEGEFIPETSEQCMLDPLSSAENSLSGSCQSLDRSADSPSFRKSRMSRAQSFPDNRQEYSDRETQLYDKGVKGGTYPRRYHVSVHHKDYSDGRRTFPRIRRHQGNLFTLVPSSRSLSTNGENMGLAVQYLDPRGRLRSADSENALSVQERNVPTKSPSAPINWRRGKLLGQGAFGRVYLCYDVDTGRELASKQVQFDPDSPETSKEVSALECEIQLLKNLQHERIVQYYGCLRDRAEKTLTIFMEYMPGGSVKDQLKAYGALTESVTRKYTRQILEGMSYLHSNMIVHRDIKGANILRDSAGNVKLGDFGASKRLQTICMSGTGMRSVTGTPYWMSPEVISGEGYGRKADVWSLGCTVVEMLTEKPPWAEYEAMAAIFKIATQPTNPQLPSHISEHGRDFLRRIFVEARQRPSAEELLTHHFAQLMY
Sequence of MAP kinase-activated protein kinase 2 (P49137 whole entry, looked up): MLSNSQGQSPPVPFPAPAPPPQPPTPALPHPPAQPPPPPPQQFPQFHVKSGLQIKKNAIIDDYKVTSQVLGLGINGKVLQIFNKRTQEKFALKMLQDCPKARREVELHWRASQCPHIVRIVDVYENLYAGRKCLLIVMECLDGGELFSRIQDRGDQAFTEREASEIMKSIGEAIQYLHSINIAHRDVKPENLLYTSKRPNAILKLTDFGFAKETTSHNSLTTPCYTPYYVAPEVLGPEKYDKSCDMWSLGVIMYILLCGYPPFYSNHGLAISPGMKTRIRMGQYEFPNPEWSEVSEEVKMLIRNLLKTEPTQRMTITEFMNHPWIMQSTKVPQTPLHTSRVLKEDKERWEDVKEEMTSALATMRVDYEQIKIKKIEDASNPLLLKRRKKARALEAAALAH

In the case of `CN(c1ccnc(CNc2nc(Nc3ccc4c(c3)CC(=O)N4)ncc2C(F)(F)F)n1)S(C)(=O)=O` [PF-00911705], the % of control in [1] amounted to 6.7%; in assay [2], 66.7%; in assay [3], 6%. In assay [4], the pKi (in general, −log10 of the Ki, conventionally taken in molar units) was 5.83.

In the case of `CCOc1cn(-c2ccc(F)cc2C)nc1C(=O)Nc1ccc(Oc2ccnc3cc(OC)c(OC)cc23)c(F)c1`, the % of control in assay [5], in assay [6] and in assay [7] was under 10% each time.

As for `CC[C@@H]1C(=O)N(C)c2cnc(Nc3ccc(C(=O)NC4CCN(C)CC4)cc3OC)nc2N1C1CCCC1`, the % of control in assay [8] was 79%; in assay [9], 20%; in assay [10] it was 3.4%.

On to `C[C@H](c1ccnc(Nc2nc3ccc(-c4cc(N(C)C)ncn4)cc3[nH]2)c1)N1CCN(C(=O)CC(F)(F)F)CC1` [BAY-985], for which the % of control in [11] was found to be 32%.

In assay [12], `CN1C(=O)c2sccc2N(C)c2nc(Nc3ccc(S(N)(=O)=O)cc3)ncc21` registered a % of control of 2%.
